In patent publication US11523612B2, “Pesticidal composition comprising oxime carbamate and use thereof” (priority 2017, dated 2022):

Tests used:
[1] = Solubility Test 1: oxamyl dissolved in solvent systems, crystallization or precipitation observed; assay type: physicochemical
Method: Samples of each solution were kept at −6° C. and −18° C. for 7 days, after which the degree of crystallization or precipitation of oxamyl was observed.

[2] = as above; assay type: physicochemical; remark: listed apart in the source
[3] = 40 g oxamyl in Methanol:Water 50:50 g
[4] = 40 g oxamyl in Methanol:Water 80:20 g
[5] = 40 g oxamyl in Methanol:Water:Propylene Carbonate 30:20:50 g
[6] = 40 g oxamyl in Methanol:Water:Propylene Carbonate 40:30:30 g
[7] = 40 g oxamyl in Methanol:Water:Propylene Carbonate 40:40:20 g
[8] = 40 g oxamyl in Methanol:Water:Propylene Carbonate 50:40:10 g
[9] = 40 g oxamyl in Methanol:Water:Propylene Carbonate 60:20:20 g
[10] = 40 g oxamyl in Methanol:Water:Propylene Carbonate 75:20:5 g

CNC(=O)O/N=C(\SC)C(=O)N(C)C [Oxamyl, methyl 2-(dimethylamino)-N-[[(methylamino)carbonyl]oxy]-2-oxoethanimidothioate]
Observations after 7 days at −6° C. [1, 3]: Mild precipitation
Observations after 7 days at −18° C. [1, 3]: Significant precipitation
Observations at room temperature [1, 3]: Clear solution
Observations after 7 days at −6° C. [1, 4]: Clear solution
Observations after 7 days at −18° C. [1, 4]: Significant precipitation
Observations after 7 days at −6° C. [1, 5]: Clear solution
Observations after 7 days at −18° C. [1, 5]: Clear solution
Observations after 7 days at −6° C. [1, 6]: Clear solution
Observations after 7 days at −18° C. [1, 6]: Clear solution
Observations at room temperature [1, 6]: Clear solution
Observations after 7 days at −6° C. [1, 7]: Clear solution
Observations after 7 days at −18° C. [1, 7]: Clear solution
Observations at room temperature [1, 7]: Clear solution
Observations after 7 days at −6° C. [1, 8]: Clear solution
Observations after 7 days at −18° C. [1, 8]: Clear solution
Observations at room temperature [1, 8]: Clear solution
Observations after 7 days at −6° C. [1, 9]: Clear solution
Observations after 7 days at −18° C. [1, 9]: Clear solution
Observations at room temperature [1, 9]: Clear solution
Observations after 7 days at −6° C. [1, 10]: Clear solution
Observations after 7 days at −18° C. [1, 10]: Clear solution
solubility for oxamyl ([1]; solvent system comprising methanol, water and propylene carbonate, temperatures down to −18° C.): significantly higher solubility
Observations at room temperature [2, 4]: Clear solution
Observations at room temperature [2, 5]: Clear solution
Observations at room temperature [2, 10]: Clear solution
